The values below come from patent US12208105B2, “Methods for attenuating graft-versus-host disease and opportunistic infections” (priority 2018, dated 2025).

Where two headings read alike, the source gives them in different places.

Data set [1] addresses T1, CCR7 (Homo sapiens, UniProt P32248).
T1 sequence (P32248 25-378): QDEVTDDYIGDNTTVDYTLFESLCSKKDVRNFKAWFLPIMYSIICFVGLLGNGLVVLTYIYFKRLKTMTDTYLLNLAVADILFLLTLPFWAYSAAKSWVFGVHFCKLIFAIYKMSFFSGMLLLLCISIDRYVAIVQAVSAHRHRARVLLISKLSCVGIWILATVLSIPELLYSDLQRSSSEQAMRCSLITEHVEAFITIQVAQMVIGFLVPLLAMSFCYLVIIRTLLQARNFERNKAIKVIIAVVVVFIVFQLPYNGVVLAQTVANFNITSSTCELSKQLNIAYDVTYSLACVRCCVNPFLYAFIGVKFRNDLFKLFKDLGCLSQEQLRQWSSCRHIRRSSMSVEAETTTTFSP
To be noted: cited from earlier work.

Data set [2] addresses T2, CCR1 (Homo sapiens, UniProt P32246).
T2 sequence (P32246 1-355): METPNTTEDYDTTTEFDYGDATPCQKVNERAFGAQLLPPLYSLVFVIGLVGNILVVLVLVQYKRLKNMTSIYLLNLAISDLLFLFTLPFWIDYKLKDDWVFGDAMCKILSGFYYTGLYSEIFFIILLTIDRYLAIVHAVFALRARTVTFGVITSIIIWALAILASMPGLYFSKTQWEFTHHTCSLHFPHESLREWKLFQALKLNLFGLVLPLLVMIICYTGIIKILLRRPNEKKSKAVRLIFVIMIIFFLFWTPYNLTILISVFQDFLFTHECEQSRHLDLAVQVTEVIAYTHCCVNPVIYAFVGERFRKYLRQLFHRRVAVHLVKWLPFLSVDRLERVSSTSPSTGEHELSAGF
The following applies: cited from earlier work.

Data set [3] relates to B6 into B6D2 aGVHD model. In words: aGVHD, B6 into B6D2 transplant, cosalane dosed systemically. It counts as in vivo, mouse. As to the method:
Transplantation Procedures: Recipient mice were irradiated on transplant day −1. Recipients were then administered T cell depleted (TCD) bone marrow cells +/−CD25^− column-purified conventional T cells (Tcons) to induce aGVHD as previously described (Wysocki et al., J. Immunol. 173:845 (2004); Carlson et al., Blood 113:1365 (2009)). Tcons consisted of CD4^+ and CD8^+ T cells in a 1:1 ratio. For ex-vivo cosalane incubations, cell populations were suspended in serum/protein free injectable saline unless otherwise indicated. […] The cells were then administered immediately to recipients by tail vein injection.

Data set [4] concerns Epstein Barr virus (EBV). Type of data set: cell-based, human.
Data set [5] concerns the target T3, Murine CCR7 (Mus musculus, UniProt P47774).
T3 sequence (P47774 25-378): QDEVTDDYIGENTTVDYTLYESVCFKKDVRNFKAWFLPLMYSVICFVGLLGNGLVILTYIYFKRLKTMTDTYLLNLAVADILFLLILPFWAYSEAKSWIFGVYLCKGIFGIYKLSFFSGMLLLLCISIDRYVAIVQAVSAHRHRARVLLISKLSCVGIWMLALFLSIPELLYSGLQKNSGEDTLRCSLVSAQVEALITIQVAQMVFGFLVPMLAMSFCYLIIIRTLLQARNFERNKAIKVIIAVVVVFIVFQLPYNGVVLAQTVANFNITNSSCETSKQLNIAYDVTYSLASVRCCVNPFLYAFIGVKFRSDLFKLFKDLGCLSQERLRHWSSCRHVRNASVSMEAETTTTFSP
As to the kind of experiment: HTS primary reporter assay, murine CCR7. It counts as cell-based. On the technique in general: Reporter assays use an easily measured gene product as a stand-in for the process of interest.

For data set [6], the system named is B6 into B6D2 aGVHD model.
Data set [7] has as its system donor (eGFP+) cells in the spleen. In words: Donor engraftment in host spleen by flow cytometry. Type of data set: in vivo, mouse. The following applies: whole stem cell product incubated 15 μg/ml, transplant day +10. As for the experimental part:
Purified Tcons and TCD BM cells were obtained from B6 donors transgenic for enhanced green fluorescent protein (eGFP^+) and were mixed together prior to being incubated with cosalane or DMSO. The cells were subsequently administered to irradiated B6D2 recipients and both bone marrow and Tcon engraftment then determined by flow cytometry within the host spleen on transplant day +10. Donor derived cells were distinguished from residual host cells by virtue of their eGFP positivity.

The subject of data set [8] is B6 into BALB/c aGVHD model. As to the kind of experiment: aGVHD, B6 into BALB/c MHC mismatched allograft, Tcons incubated ex vivo. Type of data set: in vivo, mouse.
[9] abbreviates: BM plus Tcons incubated 15 μg/ml.
The mark [10] stands for this setting: Tcons incubated 10 μg/ml (13 μM) in saline alone, one hour.

Usually IC50 stands for the concentration that inhibits the measured activity by half.

On to `CC(C)CCC[C@@H](C)[C@H]1CC[C@H]2[C@@H]3CC[C@H]4C[C@@H](CCC=C(c5cc(Cl)c(O)c(C(=O)O)c5)c5cc(Cl)c(O)c(C(=O)O)c5)CC[C@]4(C)[C@H]3CC[C@]12C` [Cosalane, cosalane], for which, in data set [1], the “activity against CCL19 versus CCL21” value is “approximately 10 fold”. Moreover, in data set [2], the “CCR1 dependent chemotaxis in response to CCL3 and CCL4” value is “inactive”; the “CCR1 dependent chemotaxis in response to CCL5” value is given as “blocked”. For the same molecule, the “aGVHD (survival and scores) with systemic dosing” value in data set [3] (10 mg/kg intravenous, day 0, +3, +6) was “did not attenuate aGVHD and may have actually worsened clinical outcomes”. Further, the “dosages much better tolerated by irradiated recipients” value in data set [3] (irradiated recipients, 10 mg/kg excessively high) was in the range of 0.5 to 2 mg/kg. Besides, the “EBV infection, isolated pretreatment of target cells” value in data set [4] (20 μg/ml pretreatment one hour, washed) is reported as “reduced viral infection to a significant degree”. Further, the “EBV infectivity, compound present throughout” value in data set [4] (20 μg/ml, Raji cells, 48 hours) is “significantly limited EBV infectivity”. Also, the half-inhibitory concentration (IC50) in data set [5] (ligand CCL19, read-out: Murine CCR7 IC50 To CCL19) stood at 193 nM. Also, in data set [5] (ligand CCL21, read-out: Murine CCR7 IC50 To CCL21), the IC50 was 1980 nM. Besides, in data set [6] (BM cells and Tcons incubated 15 μg/ml), the “recipients surviving to the end of the study period, combined treatment” value amounted to 100%. Further, in data set [6] (setting [9]), the “delayed bone marrow failure” value is “no clinical signs of delayed bone marrow failure” and the “group surviving to the end of the study observation period” value is listed as 90%. For the same molecule, in data set [6] (setting [10]), the aGVHD scores entry is “reduced aGVHD scores” and the median survival times result is “improved median survival times”. The aGVHD result in data set [6] (Tcons incubated 10 μg/ml in saline plus 1% albumin) is “developed severe aGVHD similar to DMSO controls”. For the same molecule, in data set [6] (Tcons incubated 15 μg/ml, BM DMSO), the “survival, isolated treatment of donor Tcons” value came to 100%. Moreover, in data set [6] (Tcons incubated 10, 20 or 30 μg/ml), the “transplant outcomes, dose dependence” value is recorded as “improved transplant outcomes with increasing dosages”. Further, in data set [6] (mouse, in vivo), the “aGVHD attenuation, whole stem product treated” value is given as “attenuate aGVHD at least as well as what was observed previously with the isolated treatment of Tcons alone” and the “outcomes, isolated treatment of donor BM cells alone” value is given as “did not significantly improve outcomes”. Also, in data set [7], the “donor cell numbers in the spleen” value is on record as “did not produce any differences in donor monocyte, neutrophil, T cell, or B cell numbers”. In addition, the survival times entry in data set [8] (Tcons incubated 15 μg/ml in saline) was “prolonged survival times”. Also, in data set [8] (Tcons incubated 30 μg/ml), the survival entry was “most recipients surviving to the end of the study period”.
